Reference: patent US20230310661A1, “OPHTHALMIC DYE” (Vitreq B.V., priority 2020, published 2023)

Assays:
ARPE-19 cells [1] = experiment: Three-step staining (dye, calcein-AM, propidium iodide) with microphotographs; assay type: cell-based, human; details: 0.025% in PBS, room temperature, 15 minutes; 20% ethanol 5 minutes to induce death in some cells; FIG. 3
Experimental: An experiment was carried out with ARPE-19 cells and staining with compound (6).
A three-step staining procedure was used: first the dye was introduced, then calcein-acetoxymethyl ester (calcein-AM), then propidium iodide (PI). Calcein-AM (which is non-fluorescent) is able to penetrate cell membranes and is hydrolyzed by intracellular esterases to calcein, which is fluorescent and which cannot escape through the intact cell membrane. Cells fluorescent for calcein-AM are therefore intact and living cells. Dead cells (cells with a compromised cell membrane) might still hydrolyze calcein-AM, but they are not able to retain the calcein. Cells with compromised cell membranes can take up propidium iodide, a dye which intercalates into DNA and turns fluorescent upon binding.
Cells were grown in 48-well plates. Growth medium was removed and a solution of 20% ethanol was added for 5 minutes in order to induce cell death in some cells. The ethanol solutions were removed. Staining with compound (6) (0.025%) in PBS was carried out at room temperature for 15 minutes. The dye was washed off with PBS. The cells were then exposed to calcein-acetoxymethyl ester (calcein-AM) in PBS for 15 minutes at room temperature. […]

[2] = Staining ability on PVDF filter as ILM model
Excerpt: Correlation between staining of the filter and observed staining of the ILM in patients (data from (Rodrigues, Penha et al. 2010)) show a good correlation (see FIG. 1). A 96-well filter (MSBVN1210 MultiScreen BV Filter Plate, Merck-Millipore, Darmstadt, Germany) was used as ILM model. The filter material is hydrophilic polyvinylidene difluoride (PVDF). A Collagen Cell Carrier membrane (CCC) (Viscofan, Weinheim, Germany) was used as model for the ERM. Punches of the membrane (5 mm diameter) were fixed to the filter with a hypodermic needle and soaked in PBS for 30 minutes. The PBS was removed by vacuum filtration, and 50 μL of the dye solution was pipetted into the filter well. After 30 s, the dye was removed by vacuum filtration, and membrane and filter were washed three times with PBS. The membrane was removed and put into a 96-well plate for spectrum recording, using a Tecan Spark 20M (Tecan Group Ltd., Männedorf, Switzerland) plate reader. The filter staining of the compounds (6) and (8) according to the invention are shown in FIG. 2 in comparison to that of BBG. […] The intensity of the grey values was measured. For BBG the mean intensity was 201, for compound (6) it was 175, for compound (8) it was 197. On the scale used, 255 is white and 0 is black.

ARPE-19 cells [3] = experiment: Toxicity: survival of cells after exposure to dyes; assay type: cell-based
Experimental: A preferred dye, being either a compound according to the invention or an additional dye as defined above, has a good staining ability for dead cells, a minimal cellular toxicity in the dark, and a minimal cellular toxicity in the strong illumination necessary for surgery.
According to a preferred definition, a low toxicity means that at least 60%, 65%, 70%, 75%, 80%, 85%, 90% or 95% cell viability is retained after incubation in PBS for 15 minutes at 37° C. and 5% CO2, as determined using the methodology of Example 6.

ARPE19 cells = experiment: Staining of dead cells and/or living cells: dye content in ARPE19 cells by spectrophotometry; assay type: cell-based, human; details: 15 minutes staining; for Adead (maximum absorbance for dead cells): ARPE19 cells fixed with 70% ethanol 5 minutes; for Aliving (maximum absorbance for living cells): living ARPE19 cells
[4] = concentration of the dye 0.025%

CCN(Cc1cccc(S(=O)(=O)O)c1)c1ccc(C(=C2C=CC(=[N+](CC)Cc3cccc(S(=O)(=O)[O-])c3)C=C2C)c2ccc(Nc3ccc(OC)cc3)cc2)c(C)c1 [Compound (6)]
Staining of living cells (microscopy) (ARPE-19 cells [1]): does not stain living cells
Ability to stain the ILM (comparative statement) ([2]; PVDF filter as model for the ILM): increased ability to stain the ILM compared to BBG
Mean intensity of the grey values of stained filter ([2]; dye 0.025%, 30 s contact, scale 255 is white and 0 is black): 175
Filter staining in comparison to BBG ([2]; equal concentrations of 0.025%, FIG. 2): Much stronger staining
Survival of ARPE-19 cells (ARPE-19 cells [3]; 0.1% in PBS for 15 minutes at 37° C.): 103%
Survival (ARPE-19 cells [3]; dye concentration 0.025%): 103%
Adead (maximum absorbance for dead cells) (ARPE19 cells; [4]): 0.3630
Adead (maximum absorbance for dead cells) (ARPE19 cells; dye 0.1% w/v in PBS): 0.8755
Aliving (maximum absorbance for living cells) (ARPE19 cells; [4]): 0.0635
Aliving (maximum absorbance for living cells) (ARPE19 cells; dye 0.1% w/v in PBS, <0.07 = does not stain): 0.0603
